# Tests used:
# [1] = frontal affinity chromatography (FAC), association constant to PA sugar chains without L-fucose; format: binding
# Description: (§1) The following section will describe a method of calculating an association constant by frontal affinity chromatography (FAC). This method is based on the following principle. […] Then, the elution front end (front) is observed immediately. When there is an affinity with lectin, the elution of the sugar chain is delayed.
# (§2) The preparation of a lectin column used in the apparatus is performed in the method as described below. 1. Purified lectin is dissolved in 0.1 to 0.2M of NaHCO3 buffer solution (pH 8.3 to 8.5). 2. The lectin is immobilized, via a lectin primary amino group, a carrier such as NHS activated sepharose. 3. Then, the lectin is blocked by Tris buffer solution including primary amine or ethanolamine for example. 4. Lectin-sepharose is suspended in 10 mM Tris buffer, including 0.8% of NaCl (pH 7.4, TBS). Then, lectin immobilized resin is filled in a miniature column (φ2 mm×10 mm, 31.4 μl). 5. The miniature column in which the lectin immobilized resin is filled is protected by a holder and the lectin column is connected to an FAC automatic analysis apparatus (FAC-1, SHIMADZU CORPORATION).
# (§3) Then, the elution of the PA sugar chain from the column is detected by a fluorescence detector (excitation wavelength/fluorescence wavelength: 310 nm/380 nm).
# (§4) Based on the detection data, by using the elution front end (Vo) of the sugar chain (PA rhamnose) not interacting with lectin as a reference, the delay (V−Vo) of the elution front end (V) of a sugar chain interacting with lectin is calculated as an interaction strength. Then, based on the following FAC criteria expressions, the association constant (Ka) between the sugar chain and lectin is calculated based on V−Vo and Bt. If the interaction strength (V−Vo value) and the association constant are higher, a higher affinity is caused between lectin and an L-fucose α1→6 sugar chain.
# (§5) [In the formula, A means substance used for the elution, Ao means the initial concentration of the substance A, B means a immobilized ligand, V means the elution volume, Vo means the elution front end volume of the substance not interacting with the immobilized ligand B at all, Bt means an effective ligand amount, Kd means a dissociation constant (an inverse of the association constant)].
# (§6) Pyridylaminated (PA) sugar chains shown in FIG. 1 and FIG. 2 were used to frontal affinity chromatography (FAC) analysis. PA sugars were purchased from TAKARA BIO INC., SEIKAGAKU BIOBUSINESS CORPORATION, and Masuda Chemical Industries co., LTD. PA sugar were also obtained by pyridylaminating, by GlycoTAG®(TAKARA BIO INC.), an unlabeled sugar chain or a sugar chain obtained by subjecting a sugar chain to enzyme digestion for example.
# (§7) Lectin was dissolved in 0.2 M NaHCO3 buffer solution (pH 8.3) including 0.5 M NaCl and coupled to the NHS-activated sepharose (GE Healthcare Bioscience) by following the manufacturer's instructions. Then, lectin immobilized sepharose was suspended in 10 mM Tris buffer (pH 7.4, TBS) including […] and the resultant matter was filled in a miniature column (φ2 mm×10 mm, 31.4 μl).
# (§8) Frontal affinity chromatography was performed using FAC automatic analysis apparatus (FAC-1, SHIMADZU CORPORATION). In particular, the above-prepared lectin column was inserted to a stainless steel holder and the holder was connected to FAC-1 apparatus. The flow rate and the column temperature were maintained at 0.125 ml/min and 25 degrees C., respectively. After the miniature column was equilibrated by the TBS, an excessive volume (0.5 ml to 4 ml) of a PA sugar chain (3.75 nM or 7.5 nM) was continuously inputted to the column using an automatic sampling apparatus.
# (§9) The fluorescent strength of the eluate of the PA sugar (excitation wavelength of 310 nm and fluorescence wavelength of 380 nm) was monitored to measure the interaction strength [a difference of the front end eluate to the standard oligosaccharide (PA rhamnose): V−V0]. […]
# [2] = frontal affinity chromatography (FAC), association constant to PA sugar chains having other L-fucose; format: binding; conditions: for association constant Ka: 25 degrees C.
# Description: as §1, §2, §3, §4, §5, §6, §7, §8, §9
substance,measurement,setting,value
"Lepista sordida lectin [LSL, novel lectin purified from the mushroom Lepista sordida]",binding to sugar chain not having L-fucose,[1]; FAC,not detected at all
same,association constant Ka,"[1]; Sugar chain No. 001, sugar chain not having L-fucose",<1000 M⁻¹
same,association constant Ka,"[1]; Sugar chain No. 002, sugar chain not having L-fucose",<1000 M⁻¹
same,association constant Ka,"[1]; Sugar chain No. 003, sugar chain not having L-fucose",<1000 M⁻¹
same,association constant Ka,"[1]; Sugar chain No. 004, sugar chain not having L-fucose",<1000 M⁻¹
same,association constant Ka,"[1]; Sugar chain No. 005, sugar chain not having L-fucose",<1000 M⁻¹
same,association constant Ka,"[1]; Sugar chain No. 006, sugar chain not having L-fucose",<1000 M⁻¹
same,association constant Ka,"[1]; Sugar chain No. 007, sugar chain not having L-fucose",<1000 M⁻¹
same,association constant Ka,"[1]; Sugar chain No. 008, sugar chain not having L-fucose",<1000 M⁻¹
same,association constant Ka,"[1]; Sugar chain No. 009, sugar chain not having L-fucose",<1000 M⁻¹
same,association constant Ka,"[1]; Sugar chain No. 010, sugar chain not having L-fucose",<1000 M⁻¹
same,association constant Ka,"[1]; Sugar chain No. 011, sugar chain not having L-fucose",<1000 M⁻¹
same,association constant Ka,"[1]; Sugar chain No. 012, sugar chain not having L-fucose",<1000 M⁻¹
same,association constant Ka,"[1]; Sugar chain No. 013, sugar chain not having L-fucose",<1000 M⁻¹
same,association constant Ka,"[1]; Sugar chain No. 014, sugar chain not having L-fucose",<1000 M⁻¹
same,association constant Ka,"[1]; Sugar chain No. 101, sugar chain not having L-fucose",<1000 M⁻¹
same,association constant Ka,"[1]; Sugar chain No. 103, sugar chain not having L-fucose",<1000 M⁻¹
same,association constant Ka,"[1]; Sugar chain No. 104, sugar chain not having L-fucose",<1000 M⁻¹
same,association constant Ka,"[1]; Sugar chain No. 105, sugar chain not having L-fucose",<1000 M⁻¹
same,association constant Ka,"[1]; Sugar chain No. 107, sugar chain not having L-fucose",<1000 M⁻¹
same,association constant Ka,"[1]; Sugar chain No. 108, sugar chain not having L-fucose",<1000 M⁻¹
same,association constant Ka,"[1]; Sugar chain No. 301, sugar chain not having L-fucose",<1000 M⁻¹
same,association constant Ka,"[1]; Sugar chain No. 304, sugar chain not having L-fucose",<1000 M⁻¹
same,association constant Ka,"[1]; Sugar chain No. 305, sugar chain not having L-fucose",<1000 M⁻¹
same,association constant Ka,"[1]; Sugar chain No. 307, sugar chain not having L-fucose",<1000 M⁻¹
same,association constant Ka,"[1]; Sugar chain No. 308, sugar chain not having L-fucose",<1000 M⁻¹
same,association constant Ka,"[1]; Sugar chain No. 313, sugar chain not having L-fucose",<1000 M⁻¹
same,association constant Ka,"[1]; Sugar chain No. 314, sugar chain not having L-fucose",<1000 M⁻¹
same,association constant Ka,"[1]; Sugar chain No. 323, sugar chain not having L-fucose",<1000 M⁻¹
same,association constant Ka,"[1]; Sugar chain No. 501, sugar chain not having L-fucose",<1000 M⁻¹
same,association constant Ka,"[1]; Sugar chain No. 502, sugar chain not having L-fucose",<1000 M⁻¹
same,association constant Ka,"[1]; Sugar chain No. 503, sugar chain not having L-fucose",<1000 M⁻¹
same,association constant Ka,"[1]; Sugar chain No. 504, sugar chain not having L-fucose",<1000 M⁻¹
same,association constant Ka,"[1]; Sugar chain No. 701, sugar chain not having L-fucose",<1000 M⁻¹
same,association constant Ka,"[1]; Sugar chain No. 702, sugar chain not having L-fucose",<1000 M⁻¹
same,association constant Ka,"[1]; Sugar chain No. 703, sugar chain not having L-fucose",<1000 M⁻¹
same,association constant Ka,"[1]; Sugar chain No. 704, sugar chain not having L-fucose",<1000 M⁻¹
same,association constant Ka,"[1]; Sugar chain No. 705, sugar chain not having L-fucose",<1000 M⁻¹
same,association constant Ka,"[1]; Sugar chain No. 706, sugar chain not having L-fucose",<1000 M⁻¹
same,association constant Ka,"[1]; Sugar chain No. 707, sugar chain not having L-fucose",<1000 M⁻¹
same,association constant Ka,"[1]; Sugar chain No. 708, sugar chain not having L-fucose",<1000 M⁻¹
same,association constant Ka,"[1]; Sugar chain No. 709, sugar chain not having L-fucose",<1000 M⁻¹
same,association constant Ka,"[1]; Sugar chain No. 710, sugar chain not having L-fucose",<1000 M⁻¹
same,association constant Ka,"[1]; Sugar chain No. 711, sugar chain not having L-fucose",<1000 M⁻¹
same,association constant Ka,"[1]; Sugar chain No. 712, sugar chain not having L-fucose",<1000 M⁻¹
same,association constant Ka,"[1]; Sugar chain No. 713, sugar chain not having L-fucose",<1000 M⁻¹
same,association constant Ka,"[1]; Sugar chain No. 715, sugar chain not having L-fucose",<1000 M⁻¹
same,association constant Ka,"[1]; Sugar chain No. 716, sugar chain not having L-fucose",<1000 M⁻¹
same,association constant Ka,"[1]; Sugar chain No. 717, sugar chain not having L-fucose",<1000 M⁻¹
same,association constant Ka,"[1]; Sugar chain No. 724, sugar chain not having L-fucose",<1000 M⁻¹
same,association constant Ka,"[1]; Sugar chain No. 725, sugar chain not having L-fucose",<1000 M⁻¹
same,association constant Ka,"[1]; Sugar chain No. 728, sugar chain not having L-fucose",<1000 M⁻¹
same,association constant Ka,"[1]; Sugar chain No. 732, sugar chain not having L-fucose",<1000 M⁻¹
same,association constant Ka,"[1]; Sugar chain No. 733, sugar chain not having L-fucose",<1000 M⁻¹
same,association constant Ka,"[1]; Sugar chain No. 734, sugar chain not having L-fucose",<1000 M⁻¹
same,association constant Ka,"[1]; Sugar chain No. 735, sugar chain not having L-fucose",<1000 M⁻¹
same,association constant Ka,"[1]; Sugar chain No. 736, sugar chain not having L-fucose",<1000 M⁻¹
same,association constant Ka,"[1]; Sugar chain No. 737, sugar chain not having L-fucose",<1000 M⁻¹
same,association constant Ka,"[1]; Sugar chain No. 738, sugar chain not having L-fucose",<1000 M⁻¹
same,association constant Ka,"[1]; Sugar chain No. 901, sugar chain not having L-fucose",<1000 M⁻¹
same,association constant Ka,"[1]; Sugar chain No. 902, sugar chain not having L-fucose",<1000 M⁻¹
same,association constant Ka,"[1]; Sugar chain No. 903, sugar chain not having L-fucose",<1000 M⁻¹
same,association constant Ka,"[1]; Sugar chain No. 905, sugar chain not having L-fucose",<1000 M⁻¹
same,association constant Ka,"[1]; Sugar chain No. 907, sugar chain not having L-fucose",<1000 M⁻¹
same,binding to non-L-fucose α1→6 sugar chain,[2]; FAC,not detected at all
same,association constant Ka,[2]; Sugar chain No. 419,<1000 M⁻¹
same,association constant Ka,[2]; Sugar chain No. 420,<1000 M⁻¹
same,association constant Ka,[2]; Sugar chain No. 718,<1000 M⁻¹
same,association constant Ka,[2]; Sugar chain No. 719,<1000 M⁻¹
same,association constant Ka,[2]; Sugar chain No. 720,<1000 M⁻¹
same,association constant Ka,[2]; Sugar chain No. 721,<1000 M⁻¹
same,association constant Ka,[2]; Sugar chain No. 722,<1000 M⁻¹
same,association constant Ka,[2]; Sugar chain No. 723,<1000 M⁻¹
same,association constant Ka,[2]; Sugar chain No. 726,<1000 M⁻¹
same,association constant Ka,[2]; Sugar chain No. 727,<1000 M⁻¹
same,association constant Ka,[2]; Sugar chain No. 728 (as listed in Table 5/12),<1000 M⁻¹
same,association constant Ka,[2]; Sugar chain No. 729,<1000 M⁻¹
same,association constant Ka,[2]; Sugar chain No. 730,<1000 M⁻¹
same,association constant Ka,[2]; Sugar chain No. 731,<1000 M⁻¹
same,association constant Ka,[2]; Sugar chain No. 739,<1000 M⁻¹
same,association constant Ka,[2]; Sugar chain No. 909,<1000 M⁻¹
same,association constant Ka,[2]; Sugar chain No. 910,<1000 M⁻¹
same,association constant Ka,[2]; Sugar chain No. 931,<1000 M⁻¹
same,association constant Ka,[2]; Sugar chain No. 932,<1000 M⁻¹
same,association constant Ka,[2]; Sugar chain No. 933,<1000 M⁻¹
